# Laboratory results taken from patent US20070065524A1, “Pharmaceutical composition containing guaiacol derivatives and syringol derivatives extracted from natural plant vinegar” (priority 2003, published 2007).
# Assay: DPPH free radical scavenging ability
# Type: biochemical
# Protocol: For example, a method using DPPH(1,1-diphenyl-2-picrylhydrazin) can be used.
# DPPH scavenging ability, as described later, was evaluated by using each fraction.
# 4 ml of samples with 0.1, 0.05, 0.005, 0.001, 0.0005 and 0.0001 mg/ml diluted with methanol and 1 ml of 0.1 mM DPPH methanol solution were put into test tubes and mixed well, and left in a dark place for 30 minutes. Then absorbance of the mixture at 520 nm was read and compared with that of the BHT standard solution. The reducing power of samples can be indicated as scavenging activity (SC50) and SC50 is the concentration of samples that makes the concentration of DPPH reduce to 50%.
smiles,measurement,setting,value
"Cc1cc(C(C)(C)C)c(O)c(C(C)(C)C)c1 [BHT, butylated hydroxy toluene]",Free radical removal ability,Conc. 10 ug/ml,23.30 ± 1.94%
same,Free radical removal ability,Conc. 50 ug/ml,68.41 ± 1.55%
same,Free radical removal ability,Conc. 100 ug/ml,87.73 ± 0.64%
same,Free radical removal ability,Conc. 500 ug/ml,96.03 ± 0.12%
